{"source": "ChEMBL document CHEMBL3045168", "about": "“Thiamethoxam acts as a target-site synergist of spinosad in resistant strains of Frankliniella occidentalis” (2013)", "key": {"[1]": {"tested_on": "Frankliniella occidentalis", "experiment": "Insecticidal activity against Frankliniella occidentalis MOJO (western flower thrips) in compound treated sweet pepper leaf assessed as mortality at 25 +/- 2 degC by leaf dip method", "type": "functional", "settings": "in Capsicum annuum, foliar"}, "[2]": {"tested_on": "Frankliniella occidentalis", "experiment": "Insecticidal activity against Frankliniella occidentalis TFB (western flower thrips) in compound treated sweet pepper leaf assessed as mortality at 50 mg/l at 25 +/- 2 degC by leaf dip method", "type": "functional", "settings": "in Capsicum annuum, foliar"}, "[3]": {"tested_on": "Frankliniella occidentalis", "experiment": "Insecticidal activity against Frankliniella occidentalis R1S (western flower thrips) in compound treated sweet pepper leaf assessed as mortality at 25 +/- 2 degC by leaf dip method", "type": "functional", "settings": "in Capsicum annuum, foliar"}, "[4]": {"tested_on": "Frankliniella occidentalis", "experiment": "Insecticidal activity against Frankliniella occidentalis R1 (western flower thrips) in compound treated sweet pepper leaf assessed as mortality at 50 mg/l at 25 +/- 2 degC by leaf dip method", "type": "functional", "settings": "R1, in Capsicum annuum, foliar"}, "[5]": {"tested_on": "Frankliniella occidentalis", "experiment": "Resistance factor, LC50 for Frankliniella occidentalis PPP (western flower thrips) to LC50 for Frankliniella occidentalis TFR", "type": "functional"}, "[6]": {"tested_on": "Frankliniella occidentalis", "experiment": "Insecticidal activity against Frankliniella occidentalis TFA (western flower thrips) in compound treated sweet pepper leaf assessed as mortality at 50 mg/l at 25 +/- 2 degC by leaf dip method", "type": "functional", "settings": "in Capsicum annuum, foliar"}, "[7]": {"tested_on": "Frankliniella occidentalis", "experiment": "Insecticidal activity against Frankliniella occidentalis TF (western flower thrips) in compound treated sweet pepper leaf assessed as mortality at 25 +/- 2 degC by leaf dip method", "type": "functional", "settings": "in Capsicum annuum, foliar"}, "[8]": {"tested_on": "Frankliniella occidentalis", "experiment": "Insecticidal activity against Frankliniella occidentalis R1S (western flower thrips) in compound treated sweet pepper leaf assessed as mortality at 50 mg/l at 25 +/- 2 degC by leaf dip method", "type": "functional", "settings": "in Capsicum annuum, foliar"}, "[9]": {"tested_on": "Frankliniella occidentalis", "experiment": "Resistance factor, LC50 for Frankliniella occidentalis R1S (western flower thrips) to LC50 for Frankliniella occidentalis TFR", "type": "functional"}, "[10]": {"tested_on": "Frankliniella occidentalis", "experiment": "Insecticidal activity against Frankliniella occidentalis SPI5 (western flower thrips) in compound treated sweet pepper leaf assessed as mortality at 50 mg/l at 25 +/- 2 degC by leaf dip method", "type": "functional", "settings": "SPI5, in Capsicum annuum, foliar"}, "[11]": {"tested_on": "Frankliniella occidentalis", "experiment": "Insecticidal activity against Frankliniella occidentalis TFB (western flower thrips) in compound treated sweet pepper leaf assessed as mortality at 25 +/- 2 degC by leaf dip method", "type": "functional", "settings": "in Capsicum annuum, foliar"}, "[12]": {"tested_on": "Frankliniella occidentalis", "experiment": "Resistance factor, LC50 for Frankliniella occidentalis MOJO (western flower thrips) to LC50 for Frankliniella occidentalis TF", "type": "functional"}, "[13]": {"tested_on": "Frankliniella occidentalis", "experiment": "Resistance factor, LC50 for Frankliniella occidentalis R1S (western flower thrips) to LC50 for Frankliniella occidentalis TF", "type": "functional"}, "[14]": {"tested_on": "Frankliniella occidentalis", "experiment": "Insecticidal activity against Frankliniella occidentalis PPP (western flower thrips) in compound treated sweet pepper leaf assessed as mortality at 25 +/- 2 degC by leaf dip method", "type": "functional", "settings": "in Capsicum annuum, foliar"}, "[15]": {"tested_on": "Frankliniella occidentalis", "experiment": "Insecticidal activity against Frankliniella occidentalis TFA (western flower thrips) in compound treated sweet pepper leaf assessed as mortality at 150 mg/l at 25 +/- 2 degC by leaf dip method", "type": "functional", "settings": "in Capsicum annuum, foliar"}, "[16]": {"tested_on": "Frankliniella occidentalis", "experiment": "Insecticidal activity against Frankliniella occidentalis TFB (western flower thrips) in compound treated sweet pepper leaf assessed as mortality at 150 mg/l at 25 +/- 2 degC by leaf dip method", "type": "functional", "settings": "in Capsicum annuum, foliar"}, "[17]": {"tested_on": "Frankliniella occidentalis", "experiment": "Insecticidal activity against Frankliniella occidentalis SPI5 (western flower thrips) in compound treated sweet pepper leaf assessed as mortality at 150 mg/l at 25 +/- 2 degC by leaf dip method", "type": "functional", "settings": "SPI5, in Capsicum annuum, foliar"}, "[18]": {"tested_on": "Frankliniella occidentalis", "experiment": "Insecticidal activity against Frankliniella occidentalis R1 (western flower thrips) in compound treated sweet pepper leaf assessed as mortality at 150 mg/l at 25 +/- 2 degC by leaf dip method", "type": "functional", "settings": "R1, in Capsicum annuum, foliar"}, "[19]": {"tested_on": "Frankliniella occidentalis", "experiment": "Insecticidal activity against Frankliniella occidentalis SPI5 (western flower thrips) in compound treated sweet pepper leaf assessed as mortality at 216 mg/l at 25 +/- 2 degC by leaf dip method", "type": "functional", "settings": "SPI5, in Capsicum annuum, foliar"}, "[20]": {"tested_on": "Frankliniella occidentalis", "experiment": "Insecticidal activity against Frankliniella occidentalis TFB (western flower thrips) in compound treated sweet pepper leaf assessed as mortality at 216 mg/l at 25 +/- 2 degC by leaf dip method", "type": "functional", "settings": "in Capsicum annuum, foliar"}, "[21]": {"tested_on": "Frankliniella occidentalis", "experiment": "Insecticidal activity against Frankliniella occidentalis TFA (western flower thrips) in compound treated sweet pepper leaf assessed as mortality at 216 mg/l at 25 +/- 2 degC by leaf dip method", "type": "functional", "settings": "in Capsicum annuum, foliar"}, "[22]": {"tested_on": "Frankliniella occidentalis", "experiment": "Insecticidal activity against Frankliniella occidentalis R1 (western flower thrips) in compound treated sweet pepper leaf assessed as mortality at 216 mg/l at 25 +/- 2 degC by leaf dip method", "type": "functional", "settings": "R1, in Capsicum annuum, foliar"}, "[23]": {"tested_on": "Frankliniella occidentalis", "experiment": "Insecticidal activity against Frankliniella occidentalis R1S (western flower thrips) in compound treated sweet pepper leaf assessed as mortality at 1000 mg/l at 25 +/- 2 degC by leaf dip method", "settings": "in Capsicum annuum, foliar"}}, "data": [{"smiles": "CN1COCN(Cc2cnc(Cl)s2)/C1=N\\[N+](=O)[O-]", "note": "[THIAMETHOXAM]", "values": [{"measurement": "LC50", "setting": "[1]", "value": 209, "unit": "mg/L"}, {"measurement": "mortality at 50 µg/mL", "setting": "[2]", "value": 20, "unit": "%"}, {"measurement": "LC50", "setting": "[3]", "value": 298, "unit": "mg/L"}, {"measurement": "mortality at 50 µg/mL", "setting": "[4]", "value": 16.7, "unit": "%"}, {"measurement": "RatioLC50", "setting": "[5]", "value": 4.8}, {"measurement": "mortality at 50 µg/mL", "setting": "[6]", "value": 10, "unit": "%"}, {"measurement": "LC50", "setting": "[7]", "value": 158, "unit": "mg/L"}, {"measurement": "mortality at 50 µg/mL", "setting": "[8]", "value": 0, "unit": "%"}, {"measurement": "RatioLC50", "setting": "[9]", "value": 0.8}, {"measurement": "mortality at 50 µg/mL", "setting": "[10]", "value": 13.3, "unit": "%"}, {"measurement": "LC50", "setting": "[11]", "value": 352, "unit": "mg/L"}, {"measurement": "RatioLC50", "setting": "[12]", "value": 1}, {"measurement": "RatioLC50", "setting": "[13]", "value": 3}, {"measurement": "LC50", "setting": "[14]", "value": 1670, "unit": "mg/L"}]}, {"smiles": "O=[N+]([O-])/N=C1\\NCCN1Cc1ccc(Cl)nc1", "note": "[IMIDACLOPRID]", "values": [{"measurement": "mortality at 150 µg/mL", "setting": "[15]", "value": 6.7, "unit": "%"}, {"measurement": "mortality at 150 µg/mL", "setting": "[16]", "value": 3.3, "unit": "%"}, {"measurement": "mortality at 150 µg/mL", "setting": "[17]", "value": 0, "unit": "%"}, {"measurement": "mortality at 150 µg/mL", "setting": "[18]", "value": 10, "unit": "%"}]}, {"smiles": "N#C/N=C1\\SCCN1Cc1ccc(Cl)nc1", "note": "[THIACLOPRID]", "values": [{"measurement": "mortality at 216 µg/mL", "setting": "[19]", "value": 3.3, "unit": "%"}, {"measurement": "mortality at 216 µg/mL", "setting": "[20]", "value": 10, "unit": "%"}, {"measurement": "mortality at 216 µg/mL", "setting": "[21]", "value": 3.3, "unit": "%"}, {"measurement": "mortality at 216 µg/mL", "setting": "[22]", "value": 0, "unit": "%"}]}, {"smiles": "C/C(=N\\C#N)N(C)Cc1ccc(Cl)nc1", "note": "[ACETAMIPRID]", "values": [{"measurement": "LC50", "setting": "[3]", "value": 119, "unit": "mg/L"}, {"measurement": "RatioLC50", "setting": "[5]", "value": 0.2}, {"measurement": "RatioLC50", "setting": "[9]", "value": 0.2}, {"measurement": "LC50", "setting": "[11]", "value": 663, "unit": "mg/L"}, {"measurement": "LC50", "setting": "[14]", "value": 116, "unit": "mg/L"}]}, {"smiles": "CCCCOCCOCCOCc1cc2c(cc1CCC)OCO2", "note": "[PIPERONYL BUTOXIDE]", "values": [{"measurement": "mortality at 1000 µg/mL", "setting": "[23]", "value": 10, "unit": "%"}]}]}
